Assay results reported in patent US20070037872A1, “Inducing peripheral blood vesel vasodilation” (Mars, Incorporated, priority 2005, published 2007).

Tested on: peripheral microvascular endothelial function
Test: PAT with reactive hyperemia after L-NMMA infusion followed by cocoa beverage
Assay type: in vivo, human
Procedure: Peripheral arterial tonometry (PAT) measurements were taken of three volunteers according to the following study. This is a non-invasive technique for examining peripheral microvascular endothelial function. Microvascular endothelial function is assessed by the direct measurement of changes in digital (finger) pulse volume following reactive hyperemia.
On study days, the subjects reported in a fasted state between 7:30 and 9:00 a.m. Body weight, resting heart rate, and blood pressure were all re-measured. […] Subjects then lied down on their backs to acclimatize to ambient conditions. After 30 minutes, a non-invasive, sterile, single-use finger probe was fitted to a finger and a baseline PAT reading was taken and recorded for 10 minutes. The subjects were then subjected to a reactive hyperemia procedure (“RH”) which consisted of a period of blood flow occlusion to the measurement arm using an upper arm blood pressure cuff, pressurized to achieve a supra-systolic level (equivalent to about 60 mm mercury above systolic blood pressure) for 5 minutes. Then the cuff was released and the data recorded for another five minutes. Following this first reading, subjects drank 3 bottles of Cocoa Drink A (total 483 mg). Over the next six hours, the PAT response was monitored at two, four and six hours.
The infusion of L-NMMA occurred over 30 minutes (1mg/kg/min for the first 3 minutes and then 0.2 mg/kg/min for the next 27 minutes). Following infusion of the L-NMMA, 3 bottles of the beverage were fed (483 mg) per subject. Readings were done for baseline, after infusion of L-NMMA and after consumption of cocoa.
Referring to Table 1, RH indicates PAT value following a reactive hyperemia procedure; “baseline” refers to baseline reading prior to occlusion period.
The data supports an NO-independent mechanism of action of the compounds described herein. […] This indicates the blood flow was affected via an NO-independent mechanism. Peripheral blood flow/vasodilation is a function of both NO and NO-independent vasodilators. The endothelium derived NO is one of the most important mediators of vascular tone; however, NO is not the only compound regulating vascular tone. As such, being able to operate via NO-independent mechanisms means that the compound of the invention can exert important vasodilatory effects on the microvasculature which are independent of an intact endothelium. If the endothelium is compromised in any way and simply cannot produce enough NO, the fact that the compounds of the invention act in an endothelium independent fashion offers greater therapeutic benefits, which was previously unexpected.

[1] = Subject #1, Day 11, after 30 min intravenous infusion of L-NMMA
[2] = Subject #5, Day 10, after 30 min intravenous infusion of L-NMMA
[3] = Subject #6, Day 11, after 30 min intravenous infusion of L-NMMA

In the case of `CNC(=N)NCCC[C@H](N)C(=O)O` [LNMMA], the “Baseline (baseline PAT reading prior to occlusion period)” value (shortened to “Baseline”) [1] is reported as 616, the “RH (PAT value following a reactive hyperemia procedure)” value [1] is reported as 1.61 and the “Baseline” value [2] is reported as 689. For the same compound, the “RH (PAT value following a reactive hyperemia procedure)” value [2] was 1.42, the “Baseline” value [3] was 597 and the “RH (PAT value following a reactive hyperemia procedure)” value [3] was 1.75. For the same compound, the “change in the RH value” (all three subjects, after L-NMMA infusion) was “dramatic reduction”.
